Data reported in PubChem BioAssay AID1259407 (Chemical Carcinogenesis Research Information System (CCRIS), 2018).
The source made the active and inactive calls. The rule behind the calls is not given here.

System: CCRIS mutagenicity, Ames/micronucleus/aberration tests
Test: CCRIS mutagenicity studies

CCCCCCCCCC(=O)O was tested, and the mutagenic call (Test System: AMES SALMONELLA TYPHIMURIUM, Strain/Indicator: TA97, Metabolic Activation: HAMSTER, LIVER, S-9, AROCLOR 1254 (10 OR 30%), Method: PREINCUBATION) was “inactive; negative”, the mutagenic call (Test System: AMES SALMONELLA TYPHIMURIUM, Strain/Indicator: TA97, Metabolic Activation: NONE, Method: PREINCUBATION) was “inactive; negative” and the mutagenic call (Test System: AMES SALMONELLA TYPHIMURIUM, Strain/Indicator: TA97, Metabolic Activation: RAT, LIVER, S-9, AROCLOR 1254 (10 OR 30%), Method: PREINCUBATION) was “inactive; negative”. For the same compound, the mutagenic call (Test System: AMES SALMONELLA TYPHIMURIUM, Strain/Indicator: TA98, Metabolic Activation: HAMSTER, LIVER, S-9, AROCLOR 1254 (10 OR 30%), Method: PREINCUBATION) was “inactive; negative”, the mutagenic call (Test System: AMES SALMONELLA TYPHIMURIUM, Strain/Indicator: TA98, Metabolic Activation: NONE, Method: PREINCUBATION) was “inactive; negative” and the mutagenic call (Test System: AMES SALMONELLA TYPHIMURIUM, Strain/Indicator: TA98, Metabolic Activation: RAT, LIVER, S-9, AROCLOR 1254 (10 OR 30%), Method: PREINCUBATION) was “inactive; negative”. For the same compound, the mutagenic call (Test System: AMES SALMONELLA TYPHIMURIUM, Strain/Indicator: TA100, Metabolic Activation: HAMSTER, LIVER, S-9, AROCLOR 1254 (10 OR 30%), Method: PREINCUBATION) was “inactive; negative”, the mutagenic call (Test System: AMES SALMONELLA TYPHIMURIUM, Strain/Indicator: TA100, Metabolic Activation: NONE, Method: PREINCUBATION) was “inactive; negative” and the mutagenic call (Test System: AMES SALMONELLA TYPHIMURIUM, Strain/Indicator: TA100, Metabolic Activation: RAT, LIVER, S-9, AROCLOR 1254 (10 OR 30%), Method: PREINCUBATION) was “inactive; negative”. The mutagenic call (Test System: AMES SALMONELLA TYPHIMURIUM, Strain/Indicator: TA1535, Metabolic Activation: HAMSTER, LIVER, S-9, AROCLOR 1254 (10 OR 30%), Method: PREINCUBATION) was “inactive; negative”, the mutagenic call (Test System: AMES SALMONELLA TYPHIMURIUM, Strain/Indicator: TA1535, Metabolic Activation: NONE, Method: PREINCUBATION) was “inactive; negative” and the mutagenic call (Test System: AMES SALMONELLA TYPHIMURIUM, Strain/Indicator: TA1535, Metabolic Activation: RAT, LIVER, S-9, AROCLOR 1254 (10 OR 30%), Method: PREINCUBATION) was “inactive; negative”. The mutagenic call (Test System: AMES SALMONELLA TYPHIMURIUM, Strain/Indicator: TA1537, Metabolic Activation: HAMSTER, LIVER, S-9, AROCLOR 1254 (10 OR 30%), Method: PREINCUBATION) was “inactive; negative”, the mutagenic call (Test System: AMES SALMONELLA TYPHIMURIUM, Strain/Indicator: TA1537, Metabolic Activation: NONE, Method: PREINCUBATION) was “inactive; negative” and the mutagenic call (Test System: AMES SALMONELLA TYPHIMURIUM, Strain/Indicator: TA1537, Metabolic Activation: RAT, LIVER, S-9, AROCLOR 1254 (10 OR 30%), Method: PREINCUBATION) was “inactive; negative”.

With CN(C)c1ccc(N=Nc2ccc3ccccc3c2)cc1 the mutagenic call (Test System: AMES SALMONELLA TYPHIMURIUM, Strain/Indicator: TA98, Metabolic Activation: HAMSTER, LIVER, S-9, AROCLOR 1254, Method: STANDARD PLATE) was “active; positive”, the mutagenic call (Test System: AMES SALMONELLA TYPHIMURIUM, Strain/Indicator: TA98, Metabolic Activation: HAMSTER, LIVER, S-9, Method: PREINCUBATION (PRIVAL METHOD)) was “active; positive” and the mutagenic call (Test System: AMES SALMONELLA TYPHIMURIUM, Strain/Indicator: TA98, Metabolic Activation: RAT, LIVER, S-9, AROCLOR 1254, HAMSTER, LIVER, S-9, AROCLOR 1254, Method: STANDARD PLATE) was “active; positive”. For the same compound, the mutagenic call (Test System: AMES SALMONELLA TYPHIMURIUM, Strain/Indicator: TA100, Metabolic Activation: HAMSTER, LIVER, S-9, Method: PREINCUBATION (PRIVAL METHOD)) was “active; positive”, the mutagenic call (Test System: AMES SALMONELLA TYPHIMURIUM, Strain/Indicator: TA1538, Metabolic Activation: RAT, LIVER, S-9, AROCLOR 1254, HAMSTER, LIVER, S-9, AROCLOR 1254, Method: STANDARD PLATE) was “active; positive” and the mutagenic call (Test System: MOUSE LYMPHOMA, Strain/Indicator: L5178Y (TK+/TK-), Metabolic Activation: RAT, LIVER, S-9, AROCLOR 1254, Method: SUSPENSION/PLATE) was “active; positive. reevaluation of results: positive”. The mutagenic call (Test System: Mouse lymphoma, Strain/Indicator: L5178Y (tk+/tk-), Metabolic Activation: None, Method: Suspension/plate) was “inactive; negative”.

With Cc1ccc2c(C)c3ccccc3c(C)c2c1 the mutagenic call (Test System: AMES SALMONELLA TYPHIMURIUM, Strain/Indicator: TA98, Metabolic Activation: NONE, Method: STANDARD PLATE) was “active; positive”, the mutagenic call (Test System: AMES SALMONELLA TYPHIMURIUM, Strain/Indicator: TA98, Metabolic Activation: RAT, LIVER, S-9, AROCLOR 1254, Method: STANDARD PLATE) was “active; positive” and the mutagenic call (Test System: AMES SALMONELLA TYPHIMURIUM, Strain/Indicator: TA100, Metabolic Activation: NONE, Method: STANDARD PLATE) was “inactive; negative”. The mutagenic call (Test System: AMES SALMONELLA TYPHIMURIUM, Strain/Indicator: TA100, Metabolic Activation: RAT, LIVER, S-9, AROCLOR 1254, Method: STANDARD PLATE) was “active; positive”.
